Where two headings read alike, the source gives them in different places.

In experiment [1] the test system is Clostridium difficile hypervirulent ribotype 027 (RT027) strains. The experiment is described as follows: drug sensitivity test, resistance rate of 269 RT027 strains. The experiment is classed as cell-based. Particulars: for Resistance rate to Category 1 (56 strains) / Resistance rate to Category 2 (23 strains) / Resistance rate to Category 3 (190 strains): 269 RT027 strains; for Resistance rate to Category 2 (23 strains): Category 2 (sensitive branch); for Average resistance rate: all 269 RT027 strains.

For experiment [2], the system named is Clostridium difficile clade2 strains. The experiment is classed as cell-based. Particulars: for Resistance rate to Category 1 (70 strains) / Resistance rate to Category 2 (96 strains) / Resistance rate to Category 3 (217 strains): 383 clade2 strains; for Average resistance rate: all 383 clade2 strains.

For the compound `Cc1ncc([N+](=O)[O-])n1CCO` [Metronidazole, metronidazole], in experiment [1], the “Resistance rate to Category 1 (56 strains)” value turned out to be 51.79%, the “Resistance rate to Category 2 (23 strains)” value came out at 0.0%, the “Resistance rate to Category 3 (190 strains)” value worked out at 47.37% and the Average resistance rate worked out at 44.24%. The “Resistance rate to Category 2 (23 strains)” value in experiment [1] (listed as metronidazole) is reported as 0.0%. Further, in experiment [2], the “Resistance rate to Category 1 (70 strains)” value was found to be 52.86%, the “Resistance rate to Category 2 (96 strains)” value was found to be 3.13%, the “Resistance rate to Category 3 (217 strains)” value is 48.39% and the Average resistance rate is recorded as 37.86%. The “Resistance rate to Category 2 (96 strains)” value in experiment [2] (listed as metronidazole) was 3.03%.

With `CN[C@H](CC(C)C)C(=O)N[C@H]1C(=O)N[C@@H](CC(N)=O)C(=O)N[C@H]2C(=O)N[C@H]3C(=O)N[C@H](C(=O)N[C@H](C(=O)O)c4cc(O)cc(O)c4-c4cc3ccc4O)[C@H](O)c3ccc(c(Cl)c3)Oc3cc2cc(c3O[C@@H]2O[C@H](CO)[C@@H](O)[C@H](O)[C@H]2O[C@H]2C[C@](C)(N)[C@H](O)[C@H](C)O2)Oc2ccc(cc2Cl)[C@H]1O` [Vancomycin, vancomycin], in experiment [1], the “Resistance rate to Category 1 (56 strains)” value was found to be 94.64%, the “Resistance rate to Category 2 (23 strains)” value is 21.74%, the “Resistance rate to Category 3 (190 strains)” value worked out at 21.05% and the Average resistance rate worked out at 36.43%. In experiment [1] (listed as vancomycin), the “Resistance rate to Category 2 (23 strains)” value is given as 21.74% and the “Resistance rate to Category 3 (190 strains)” value came to 21.05%. In experiment [2], the “Resistance rate to Category 1 (70 strains)” value came out at 92.86%, the “Resistance rate to Category 2 (96 strains)” value is 30.21%, the “Resistance rate to Category 3 (217 strains)” value is 22.58% and the Average resistance rate stood at 37.34%. Also, in experiment [2] (listed as vancomycin), the “Resistance rate to Category 2 (96 strains)” value was 30.21% and the “Resistance rate to Category 3 (217 strains)” value is on record as 22.58%.

The values are drawn from patent publication US20220119866A1 (priority 2019, published 2022).
